ChEMBL document CHEMBL4152347 (J Med Chem, 2018)

Columns and labels:
[1] = Protein binding in dog serum at 53 nM after 1 hr by ultracentrifugation assay; assay type: ADME, cell-free, Canis lupus familiaris; conditions: read-out: PB (converted)
[2] = Protein binding in human serum at 53 nM after 1 hr by ultracentrifugation assay; assay type: ADME, cell-free; conditions: read-out: PB (converted)
[3] = Cmax in CD1 mouse at 5 mg/kg, po administered via gavage; assay type: ADME, organism-based; parameters: dose 5 mg/kg, route oral; conditions: in vivo
[4] = Oral bioavailability in CD1 mouse at 5 mg/kg; assay type: ADME, organism-based; conditions: in vivo
[5] = Tmax in Sprague-Dawley rat at 5 mg/kg, po; assay type: ADME, organism-based; conditions: in vivo
[6] = AUC (0 to infinity) in Sprague-Dawley rat at 1 mg/kg, iv; assay type: ADME, organism-based; parameters: dose 1 mg/kg, time infinity, route intravenous; conditions: in vivo
[7] = AUC (0 to infinity) in Sprague-Dawley rat at 5 mg/kg, po; assay type: ADME, organism-based; parameters: dose 5 mg/kg, time infinity, route oral; conditions: in vivo
[8] = Total plasma clearance in Sprague-Dawley rat at 1 mg/kg, iv; assay type: ADME, organism-based
[9] = Cmax in Sprague-Dawley rat at 5 mg/kg, id; assay type: ADME, organism-based; parameters: dose 5 mg/kg; conditions: in vivo
[10] = Tmax in Sprague-Dawley rat at 5 mg/kg, id; assay type: ADME, organism-based; conditions: in vivo
[11] = AUC (0 to infinity) in Sprague-Dawley rat at 5 mg/kg, po treated with 10 mg/kg elacridar immediately after compound dosing; assay type: ADME, organism-based; parameters: dose 5 mg/kg, route oral, time infinity; conditions: in vivo, with elacridar 10 mg/kg
[12] = Cmax in beagle dog at 5 mg/kg, po administered via gavage as solution; assay type: ADME, organism-based, Canis lupus familiaris; parameters: dose 5 mg/kg, route oral; conditions: in vivo
[13] = Tmax in beagle dog at 5 mg/kg, po administered via gavage as solution; assay type: ADME, organism-based, Canis lupus familiaris; conditions: in vivo
[14] = AUC (0 to infinity) in beagle dog at 5 mg/kg, po administered via gavage as solution; assay type: ADME, organism-based, Canis lupus familiaris; parameters: dose 5 mg/kg, route oral, time infinity; conditions: in vivo
Canis familiaris = experiment: Half life in beagle dog at 1 mg/kg, iv; assay type: ADME, organism-based, Canis lupus familiaris; conditions: in vivo
[15] = Oral bioavailability in beagle dog at 5 mg/kg administered via gavage as microsuspension pre-treated with 6 ug/kg, im pentagastrin 15 to 30 mins before compound dosing; assay type: ADME, organism-based, Canis lupus familiaris; conditions: in vivo
[16] = Cmax in beagle dog at 5 mg/kg, po administered via gavage as microsuspension along with high fat meal; assay type: ADME, organism-based, Canis lupus familiaris; parameters: dose 5 mg/kg, route oral; conditions: in vivo
[17] = Tmax in beagle dog at 5 mg/kg, po administered via gavage as microsuspension along with high fat meal; assay type: ADME, organism-based, Canis lupus familiaris; conditions: in vivo
[18] = AUC (0 to infinity) in beagle dog at 5 mg/kg, po administered via gavage as microsuspension pre-treated with 40 mg famotidine in capsule form 1 hr before compound dosing; assay type: ADME, organism-based, Canis lupus familiaris; parameters: dose 5 mg/kg, time infinity, route oral; conditions: in vivo
[19] = Cmax in cynomolgus monkey at 5 mg/kg, po administered via gavage; assay type: ADME, organism-based, Macaca fascicularis; parameters: dose 5 mg/kg, route oral; conditions: in vivo
[20] = Tmax in cynomolgus monkey at 5 mg/kg, po administered via gavage; assay type: ADME, organism-based, Macaca fascicularis; conditions: in vivo
[21] = AUC (0 to infinity) in cynomolgus monkey at 1 mg/kg, iv; assay type: ADME, organism-based, Macaca fascicularis; parameters: dose 1 mg/kg, time infinity, route intravenous; conditions: in vivo
[22] = AUC (0 to infinity) in cynomolgus monkey at 5 mg/kg, po administered via gavage; assay type: ADME, organism-based, Macaca fascicularis; parameters: dose 5 mg/kg, route oral, time infinity; conditions: in vivo
[23] = Total plasma clearance in cynomolgus monkey at 1 mg/kg, iv; assay type: ADME, organism-based, Macaca fascicularis
[24] = Oral bioavailability in cynomolgus monkey at 5 mg/kg administered via gavage; assay type: ADME, organism-based, Macaca fascicularis; conditions: in vivo
[25] = Tmax in MDR1 a/b knockout mouse at 5 mg/kg, po administered via gavage; assay type: ADME, organism-based; conditions: in vivo
[26] = AUC (0 to infinity) in MDR1 a/b knockout mouse at 5 mg/kg, po administered via gavage; assay type: ADME, organism-based; parameters: dose 5 mg/kg, time infinity, route oral; conditions: in vivo
[27] = Half life in dog hepatocytes at 0.5 uM after 1 hr in presence of NADPH by LC-MS/MS analysis; assay type: ADME, cell-based, Canis lupus familiaris, Hepatocyte
Salmonella typhimurium = experiment: Mutagenicity in Salmonella typhimurium TA98 in presence of Aroclor 1254-induced rat liver S9 fraction at up to 1600 ug/plate; assay type: toxicity, organism-based; conditions: salmonella enterica subsp. enterica serovar typhimurium
Gag-Pol polyprotein = Gag-Pol polyprotein (Human immunodeficiency virus type 1 group M subtype B (isolate HXB2)(HIV-1), UniProt P04585, V370A)
[28] = biological target: Human immunodeficiency virus type 1 Gag protein (Human immunodeficiency virus 1) (UniProt Q77YG1)
Description: Binding affinity to wild type HIV1 gag polyprotein containing viral like particle assessed as dissociation half life

[29] = system: Gag-Pol polyprotein (Human immunodeficiency virus type 1 group M subtype B (isolate HXB2)(HIV-1)), P04585 [V370A]; conditions: Human immunodeficiency virus 1
[30] = biological target: Gag-Pol polyprotein (Human immunodeficiency virus type 1 group M subtype B (isolate HXB2)(HIV-1)) (UniProt P04585); conditions: Human immunodeficiency virus 1
Description: Binding affinity to HIV1 gag polyprotein delta V370 mutant containing viral like particle assessed as dissociation half life

in vivo = conditions: Sprague-Dawley, rat, po, 5 mg/kg
[31] = system: Human immunodeficiency virus 1; experiment: microbe, parasite or virus in culture
Description: Antiviral activity against HIV1 expressing gag A364V mutant

Question: Which fraction unbound at 1 h, 0.053 µM [1] does the source give for `C=C(C)[C@@H]1CC[C@]2(NCCN3CCS(=O)(=O)CC3)CC[C@]3(C)[C@H](CC[C@@H]4[C@@]5(C)CC=C(c6ccc(C(=O)O)cc6)C(C)(C)[C@@H]5CC[C@]43C)[C@@H]12` [BMS-955176] here?
Answer: 0.154

Question: And the fraction unbound at 1 h, 0.053 µM [2]?
Answer: 0.139

Question: And the Cmax [3]?
Answer: 2790 nM

Question: And the bioavailability [4]?
Answer: 26.8%

Question: What about the Tmax [5] of the same molecule?
Answer: 6 h

Question: What about the AUC(0-inf) [6] of the same molecule?
Answer: 11.1 µM·h

Question: And the AUC(0-inf) [7]?
Answer: 14.2 µM·h

Question: And the clearance [8]?
Answer: 2.2 mL/min/kg

Question: What about the Cmax [9] of the same molecule?
Answer: 1700 nM

Question: What about the Tmax [10] of the same molecule?
Answer: 1 h

Question: And the AUC(0-inf) [11]?
Answer: 47.4 µM·h

Question: What about the Cmax [12] of the same molecule?
Answer: 560 nM

Question: What about the Tmax [13] of the same molecule?
Answer: 12.7 h

Question: What about the AUC(0-inf) [14] of the same molecule?
Answer: 29.4 µM·h

Question: And the t1/2 (Canis familiaris)?
Answer: 7.8 min

Question: What about the bioavailability [15] of the same molecule?
Answer: 26%

Question: What about the Cmax [16] of the same molecule?
Answer: 10.2 µM

Question: What about the Tmax [17] of the same molecule?
Answer: 10.5 h

Question: What about the AUC(0-inf) [18] of the same molecule?
Answer: 236 µM·h

Question: And the Cmax [19]?
Answer: 62 nM

Question: What about the Tmax [20] of the same molecule?
Answer: 3.3 h

Question: And the AUC(0-inf) [21]?
Answer: 13.6 µM·h

Question: What about the AUC(0-inf) [22] of the same molecule?
Answer: 1 µM·h

Question: And the clearance [23]?
Answer: 1.9 mL/min/kg

Question: What about the bioavailability [24] of the same molecule?
Answer: 4%

Question: And the Tmax [25]?
Answer: 3 h

Question: What about the AUC(0-inf) [26] of the same molecule?
Answer: 65.5 µM·h

Question: What about the half-life at 0.5 µM [27] of the same molecule?
Answer: > 120 min

Question: What about the Activity (Salmonella typhimurium) of the same molecule?
Answer: Non-Toxic

Question: What about the Kd (Gag-Pol polyprotein) of the same molecule?
Answer: 6.5 nM

Question: And the T1/2 [28]?
Answer: 41 min

Question: And the T1/2 [29]?
Answer: 36 min

Question: What about the T1/2 [30] of the same molecule?
Answer: 46 min

Question: What about the AUC(0-t) at 6 h (in vivo) of the same molecule?
Answer: 4.13 µM·h

Question: What about the EC50 [31] of the same molecule?
Answer: 1480 nM
